Source: patent US11696913B2, “Prolonged ectoparasite-controlling agent for animal” (MITSUI CHEMICALS AGRO, INC., priority 2017, dated 2023)

Tests used:
[1] = tested on: Plutella xylostella; assay: Insecticidal testing against diamondback moth; format: in vivo; settings: foliar, 144 h, concentration 100 ppm, cabbage leaf dip, third-stage larvae, after 6 days, read-out: pesticidal rate
Source text: Insecticidal Testing Against Diamondback Moth (Plutella xylostella)

[2] = tested on: Laodelphax striatellus; assay: Insecticidal testing against small brown planthopper; format: in vivo; settings: 144 h, concentration 100 ppm, sprayed rice seedlings, after 6 days, read-out: pesticidal rate
Description: Insecticidal Testing Against Small Brown Planthopper (Laodelphax striatellus)
An additional test was carried out with 10 small brown planthoppers by preparing an acetone solution of the testing compound diluted to a predetermined concentration, spraying the solution onto rice seedlings and air drying the rice seedlings. The medicament was all used as received. The rice seedlings were placed in a constant-temperature room at 25° C., and the survival rate was investigated after 6 days. The test was carried out by means of one group of 10 pests.

[3] = tested on: Ctenocephalides felis; assay: Ctenocephalides felis in-vitro feeding test with fleas (CTECFE oral); settings: 48 hours, read-out: insecticidal feeding activity; for pest or weed control at 0.8 ppm: dose 0.8 ppm in citrated cattle blood; for pest or weed control at 4 ppm: dose 4 ppm in citrated cattle blood; for pest or weed control at 0.0064 ppm: dose 0.0064 ppm in citrated cattle blood; for pest or weed control at 0.032 ppm: dose 0.032 ppm in citrated cattle blood; for pest or weed control at 0.16 ppm: dose 0.16 ppm in citrated cattle blood
How it was run: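 Scored as percent fleas killed (0–100%) 48 hours after feeding began. Compound, dissolved in DMSO and diluted into citrated cattle blood, was offered via a parafilm membrane to roughly 20 adult male and female C. felis at about 37° C.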

[4] = tested on: Rhipicephalus (Boophilus) microplus; assay: In vitro injection test with Rhipicephalus (Boophilus) microplus (BOOPMI Inj); settings: 168 h, laid fertile eggs after 7 days, read-out: acaricidal activity; for pest or weed control at 0.00016 mg: dose 0.16 μg/animal injected; for pest or weed control at 0.0008 mg: dose 0.8 μg/animal injected
How it was run: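 Five engorged adult females each get a 1 μl abdominal injection of compound dissolved and diluted in DMSO. Kept 7 days at 28° C./85% rel. hum.; percent activity rates egg laying and egg fertility (0% all fertile, 100% none laid or infertile).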

[5] = tested on: Spodoptera litura; assay: Insecticidal testing against common cutworm; format: in vivo; settings: foliar, 144 h, concentration 100 ppm, cabbage leaf dip, second-stage larvae, after 6 days, read-out: pesticidal rate
Source text: Insecticidal Testing Against Common Cutworm (Spodoptera litura)

[6] = tested on: Ctenocephalides felis; assay: In vitro contact test with fleas; settings: read-out: insecticidal activity; for pest or weed control at 0.2 µg/cm2, 0.2 µg/cm2: dose 0.2 μg/cm^2, dead or moribund fleas after 48 h; for pest or weed control at 1 µg/cm2, 1 µg/cm2: dose 1 μg/cm^2, dead or moribund fleas after 48 h; for pest or weed control at 0.04 µg/cm2, 0.04 µg/cm2: dose 0.04 μg/cm^2, dead or moribund fleas after 48 h
How it was run: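 Activity is the percentage of fleas dead or moribund at 48 h, judged by immobility or uncoordinated movement after tapping. Tubes were coated by evaporating acetone solutions (900 ppm gives 5 μg/cm^2), then held 5-10 adult fleas of both sexes at room temperature and ambient humidity.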

[7] = tested on: Dermacentor variabilis; assay: In vitro contact test with adult hard ticks (Dermacentor variabilis); settings: read-out: acaricidal activity; for pest or weed control at 0.2 µg/cm2, 0.2 µg/cm2: dose 0.2 μg/cm^2, 48 h; for pest or weed control at 1 µg/cm2, 1 µg/cm2: dose 1 μg/cm^2, 48 h
How it was run: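 Acaricidal activity = % ticks dead or moribund after 48 h contact with acetone-deposited compound on vial walls (e.g., 900 ppm solution → 5 μg/cm^2). Ambient conditions for R. sanguineus, 21° C./85% rel. hum. for other species; heat challenge at 45-50° C. separated climbers from moribund ticks.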

SMILES: CN(C(=O)c1ccc(OC(F)(F)F)cc1)c1cccc(C(=O)Nc2c(I)cc(C(F)(C(F)(F)F)C(F)(F)F)cc2C(F)(F)F)c1F [Compound 61]
- pest or weed control at 100 ppm [1]: ≥ 70%
- pest or weed control at 100 ppm [2]: ≥ 70%
- pest or weed control at 0.8 ppm [3]: 95%
- pest or weed control at 4 ppm [3]: 95%
- pest or weed control at 0.00016 mg [4]: 100%
- pest or weed control at 0.0008 mg [4]: 100%
- pest or weed control at 100 ppm [5]: ≥ 70%
- pest or weed control at 0.2 µg/cm2, 0.2 µg/cm2 [6]: 95%
- pest or weed control at 1 µg/cm2, 1 µg/cm2 [6]: 95%

SMILES: CSc1ccc(C(=O)N(C)c2cccc(C(=O)Nc3c(I)cc(C(F)(C(F)(F)F)C(F)(F)F)cc3C(F)(F)F)c2F)cc1 [Compound 53]
- pest or weed control at 100 ppm [1]: ≥ 70%
- pest or weed control at 100 ppm [2]: ≥ 70%
- pest or weed control at 0.0064 ppm [3]: 95%
- pest or weed control at 0.032 ppm [3]: 95%
- pest or weed control at 0.16 ppm [3]: 95%
- pest or weed control at 0.8 ppm [3]: 95%
- pest or weed control at 4 ppm [3]: 95%
- pest or weed control at 0.00016 mg [4]: 100%
- pest or weed control at 0.0008 mg [4]: 100%
- pest or weed control at 100 ppm [5]: ≥ 70%
- pest or weed control at 0.04 µg/cm2, 0.04 µg/cm2 [6]: 95%
- pest or weed control at 0.2 µg/cm2, 0.2 µg/cm2 [6]: 95%
- pest or weed control at 1 µg/cm2, 1 µg/cm2 [6]: 95%
- pest or weed control at 0.2 µg/cm2, 0.2 µg/cm2 [7]: 90%
- pest or weed control at 1 µg/cm2, 1 µg/cm2 [7]: 90%

SMILES: CN(C(=O)c1ccc(C(F)(F)F)nc1)c1cccc(C(=O)Nc2c(Br)cc(C(F)(C(F)(F)F)C(F)(F)F)cc2OC(F)(F)F)c1F [Compound 98]
- pest or weed control at 100 ppm [1]: ≥ 70%
- pest or weed control at 100 ppm [2]: ≥ 70%
- pest or weed control at 0.8 ppm [3]: 95%
- pest or weed control at 4 ppm [3]: 95%
- pest or weed control at 0.00016 mg [4]: 100%
- pest or weed control at 0.0008 mg [4]: 100%
- pest or weed control at 100 ppm [5]: ≥ 70%
- pest or weed control at 0.2 µg/cm2, 0.2 µg/cm2 [6]: 95%
- pest or weed control at 1 µg/cm2, 1 µg/cm2 [6]: 95%
- pest or weed control at 0.2 µg/cm2, 0.2 µg/cm2 [7]: 90%
- pest or weed control at 1 µg/cm2, 1 µg/cm2 [7]: 90%

SMILES: CN(C(=O)c1ccc(C(N)=O)cc1)c1cccc(C(=O)Nc2c(I)cc(C(F)(C(F)(F)F)C(F)(F)F)cc2C(F)(F)F)c1F [Compound 48]
- pest or weed control at 100 ppm [1]: ≥ 70%
- pest or weed control at 0.16 ppm [3]: 95%
- pest or weed control at 0.8 ppm [3]: 95%
- pest or weed control at 4 ppm [3]: 95%
- pest or weed control at 0.00016 mg [4]: 100%
- pest or weed control at 0.0008 mg [4]: 100%
- pest or weed control at 100 ppm [5]: ≥ 70%
- pest or weed control at 1 µg/cm2, 1 µg/cm2 [6]: 95%

SMILES: CN(C(=O)c1ccc2c(c1)OCO2)c1cccc(C(=O)Nc2c(I)cc(C(F)(C(F)(F)F)C(F)(F)F)cc2C(F)(F)F)c1F [Compound 55]
- pest or weed control at 100 ppm [1]: ≥ 70%
- pest or weed control at 4 ppm [3]: 95%
- pest or weed control at 100 ppm [5]: ≥ 70%
- pest or weed control at 0.2 µg/cm2, 0.2 µg/cm2 [6]: 95%
- pest or weed control at 1 µg/cm2, 1 µg/cm2 [6]: 95%

SMILES: CC(C)c1ccc(C(=O)N(C)c2cccc(C(=O)Nc3c(I)cc(C(F)(C(F)(F)F)C(F)(F)F)cc3C(F)(F)F)c2F)cc1 [Compound 47]
- pest or weed control at 100 ppm [1]: ≥ 70%
- pest or weed control at 100 ppm [2]: ≥ 70%
- pest or weed control at 4 ppm [3]: 95%
- pest or weed control at 0.0008 mg [4]: 100%
- pest or weed control at 100 ppm [5]: ≥ 70%
- pest or weed control at 0.2 µg/cm2, 0.2 µg/cm2 [6]: 95%
- pest or weed control at 1 µg/cm2, 1 µg/cm2 [6]: 95%

SMILES: CN(C(=O)c1ccc2c(c1)CCCC2)c1cccc(C(=O)Nc2c(I)cc(C(F)(C(F)(F)F)C(F)(F)F)cc2C(F)(F)F)c1F [Compound 52]
- pest or weed control at 100 ppm [1]: ≥ 70%
- pest or weed control at 4 ppm [3]: 95%
- pest or weed control at 0.0008 mg [4]: 100%
- pest or weed control at 100 ppm [5]: ≥ 70%
- pest or weed control at 1 µg/cm2, 1 µg/cm2 [6]: 95%

SMILES: CN(C(=O)c1ccc(F)cc1)c1cc(C(=O)Nc2c(Cl)cc(C(F)(C(F)(F)F)C(F)(F)F)cc2C(F)(F)F)ccc1F [Compound 83]
- pest or weed control at 100 ppm [1]: ≥ 70%
- pest or weed control at 100 ppm [2]: ≥ 70%
- pest or weed control at 0.032 ppm [3]: 95%
- pest or weed control at 0.16 ppm [3]: 95%
- pest or weed control at 0.8 ppm [3]: 95%
- pest or weed control at 4 ppm [3]: 95%
- pest or weed control at 0.00016 mg [4]: 100%
- pest or weed control at 0.0008 mg [4]: 100%
- pest or weed control at 100 ppm [5]: ≥ 70%
- pest or weed control at 0.04 µg/cm2, 0.04 µg/cm2 [6]: 95%
- pest or weed control at 0.2 µg/cm2, 0.2 µg/cm2 [6]: 95%
- pest or weed control at 1 µg/cm2, 1 µg/cm2 [6]: 95%

SMILES: CN(C(=O)c1ccc(S(N)(=O)=O)cc1)c1cccc(C(=O)Nc2c(I)cc(C(F)(C(F)(F)F)C(F)(F)F)cc2C(F)(F)F)c1F [Compound 45]
- pest or weed control at 100 ppm [1]: ≥ 70%
- pest or weed control at 0.16 ppm [3]: 95%
- pest or weed control at 0.8 ppm [3]: 95%
- pest or weed control at 4 ppm [3]: 95%
- pest or weed control at 0.00016 mg [4]: 100%
- pest or weed control at 0.0008 mg [4]: 100%
- pest or weed control at 100 ppm [5]: ≥ 70%

SMILES: CN(C(=O)c1ccc(S(C)(=O)=O)cc1)c1cccc(C(=O)Nc2c(I)cc(C(F)(C(F)(F)F)C(F)(F)F)cc2C(F)(F)F)c1F [Compound 49]
- pest or weed control at 100 ppm [1]: ≥ 70%
- pest or weed control at 100 ppm [2]: ≥ 70%
- pest or weed control at 0.0064 ppm [3]: 95%
- pest or weed control at 0.032 ppm [3]: 95%
- pest or weed control at 0.16 ppm [3]: 95%
- pest or weed control at 0.8 ppm [3]: 95%
- pest or weed control at 4 ppm [3]: 95%
- pest or weed control at 0.00016 mg [4]: 100%
- pest or weed control at 0.0008 mg [4]: 100%
- pest or weed control at 100 ppm [5]: ≥ 70%
- pest or weed control at 0.04 µg/cm2, 0.04 µg/cm2 [6]: 95%
- pest or weed control at 0.2 µg/cm2, 0.2 µg/cm2 [6]: 95%
- pest or weed control at 1 µg/cm2, 1 µg/cm2 [6]: 95%

SMILES: CN(C(=O)c1cnc(C(F)(F)F)nc1)c1cccc(C(=O)Nc2c(I)cc(C(F)(C(F)(F)F)C(F)(F)F)cc2C(F)(F)F)c1F [Compound 113]
- pest or weed control at 100 ppm [1]: ≥ 70%
- pest or weed control at 100 ppm [2]: ≥ 70%
- pest or weed control at 0.032 ppm [3]: 95%
- pest or weed control at 0.16 ppm [3]: 95%
- pest or weed control at 0.8 ppm [3]: 95%
- pest or weed control at 4 ppm [3]: 95%
- pest or weed control at 32 ng ([4]; dose 0.032 μg/animal injected): 100%
- pest or weed control at 0.00016 mg [4]: 100%
- pest or weed control at 0.0008 mg [4]: 100%
- pest or weed control at 100 ppm [5]: ≥ 70%

SMILES: CN(C(=O)c1ccc(C(F)(F)F)nc1C(F)(F)F)c1cccc(C(=O)Nc2c(I)cc(C(F)(C(F)(F)F)C(F)(F)F)cc2C(F)(F)F)c1F [Compound 111]
- pest or weed control at 100 ppm [1]: ≥ 70%
- pest or weed control at 0.0064 ppm [3]: 95%
- pest or weed control at 0.032 ppm [3]: 95%
- pest or weed control at 0.16 ppm [3]: 95%
- pest or weed control at 0.8 ppm [3]: 95%
- pest or weed control at 4 ppm [3]: 95%
- pest or weed control at 0.00016 mg [4]: 100%
- pest or weed control at 0.0008 mg [4]: 100%
- pest or weed control at 100 ppm [5]: ≥ 70%
- pest or weed control at 0.04 µg/cm2, 0.04 µg/cm2 [6]: 95%
- pest or weed control at 0.2 µg/cm2, 0.2 µg/cm2 [6]: 95%
- pest or weed control at 1 µg/cm2, 1 µg/cm2 [6]: 95%
